Results reported in ChEMBL document CHEMBL1158869, “Bioactive iridoids and a new lignan from Allamanda cathartica and Himatanthus fallax from the Suriname rainforest” (J Nat Prod, 1997).
≈ marks a conversion by molar mass, not a printed value.

Legend:
M109 = assay: Cytotoxicity against mouse M109 cells; type: functional, cell-based
Saccharomyces cerevisiae = assay: Antimicrobial activity against yeast Sc7; type: functional

Structure (SMILES)	IC50 (M109) [µg/mL]	IC12 (Saccharomyces cerevisiae) [µg/mL]
C/C=C1\C(=O)O[C@]23C=C[C@@H]4C(C(=O)OC)=CO[C@H](O[C@@H]12)[C@@H]43 [ISOPLUMERICIN]	25 (≈ 86.1 µM)	42
C/C=C1/C(=O)O[C@]23C=C[C@@H]4C(C(=O)OC)=CO[C@H](O[C@@H]12)[C@@H]43 [PLUMERICIN]	100 (≈ 345 µM)	74
